In patent publication US6037357A, “N-benzoyl-α-alkylated azatyrosines as anticancer agents” (Unitech Pharmaceuticals, Inc., priority 1999, dated 2000):
“Also recorded” adds a separate entry of the source.

How the values were obtained:
DU-145 = details: incubation for 7 days; cited from earlier work
[1] = system: cells possessing normal ras gene; details: cited from earlier work
PC-3 = details: incubation for 7 days; cited from earlier work
[2] = system: human prostate cancer cells; details: cited from earlier work
[3] = system: pappilomas induced by a chemical carcinogen; details: 2 mg/mouse once every two days for 12 days; cited from earlier work
[4] = system: stomach cancer cell (SC-M1); test: Cytotoxic assay by colorimetric MTT assay (growth inhibition), stomach cancer; type: cell-based, human; details: for IC50: Homo sapiens, 72 h, SC-M1, 10000 cells per well, 3 days incubation, mean of 4 experiments
Method: (§1) The in-vitro studies for evaluating these α-alkylatedderivatives of azatyrosine were performed and the general procedures are listed as follow:
(§2) Human stomach cancer cell line (SC-M1), and human breast cancer cell line (BC-M1) sampled from inpatients at Tri-service General Hospital in Taipei (Taiwan) were cultured and used in the experiments. All cells from primary culture and subculture were grown in 10% RPMI 1640 supplemented with 100 U/mL penicillin G, 100 μg/mL amphotericin B, and 10% fetal calf serum (FCS) in a 5% CO2 incubator at 37° C.
(§3) The cytotoxicity of these compounds against cultured cancer cells was determined by utilizing in-vitro MTT assay. L-azatyrosine and its α-alkylated derivatives were dissolved in milli-Q water at a concentration of 1 mg/mL and diluted with 10% FCS-RPMI to various concentrations, respectively. Single cell suspension (100 μL) and each compounds (100 μL) were added to 96-well flat-bottom microplate. 10% FCS-RPMI (100 μL) was used as a control group. After 3 days incubation at 37° C. in a 5% CO2 incubator, stock MTT (10 μL of 5 mg/mL for each 100 μL solution in well) solution was added to all wells. After additional 2 h incubation in a 5% CO2 incubator, The mixture was centrifuged (1000 rpm for 5 min) and the supernatant was carefully pipetted out. The residue was mixed well with DMSO (100 μL). The optical density of plates was recorded on a MRX Spectrophotometer (Dynatech, Guernsey, UK) at a wavelength of 550 nm.
(§4) Fractional inhibition was calculated as [1-(optical density of sample/optical density of control)]. The IC50 values for each compound were determined as a parameter for cytotoxicity, which is the concentration of a test compound exerting 50% survival of cancer cells, compared to untreated controls. Each value is the mean of four experiments. A specific example of the in-vitro study is shown Example 8.
(§5) A series of α-alkylated derivatives of L-azatyrosine were studied for their in-vitro effects according to the above procedures. The growth inhibition of L-azatyrosine and its derivatives on human cancer cell lines (BC-M1 and SC-M1) has been shown on Table 1.

anticancer activity = details: cited from earlier work
[5] = system: 7,12-dimethylbenz[a]anthracene or methylnitrosourea-induced carcinogenesis in mice; details: mice harboring a normal c-Ha-ras gene; cited from earlier work
[6] = system: prostate tumorigenic growth; details: cited from earlier work
TSU-Prl = details: incubation for 7 days; cited from earlier work
[7] = system: activated c-Ha-ras-transformed NIH3T3 cells; details: cited from earlier work
[8] = system: breast cancer cell (BC-M1); test: Cytotoxic assay by colorimetric MTT assay (growth inhibition), breast cancer; type: cell-based, human; details: for IC50: Homo sapiens, 72 h, BC-M1, 10000 cells per well, 3 days incubation, mean of 4 experiments
Method: as §1, §2, §3, §4, §5

N[C@@H](Cc1ccc(O)cn1)C(=O)O [L-Azatyrosine, L-azatyrosine]
in-vitro growth inhibition, DU-145 (DU-145): greater than 95% | effect on the growth of cells possessing normal ras gene [1]: without significantly affecting the growth | in-vitro growth inhibition, PC-3 (PC-3): greater than 95% | reversion efficiency on human prostate cancer cells [2]: high reversion efficiency | block of pappilomas induced by a chemical carcinogen [3]: can block pappilomas | IC50 [4]: 1600 µM | concentrations required for the anticancer activity (anticancer activity): 1 to 2 mM | inhibition of 7,12-dimethylbenz[a]anthracene or methylnitrosourea-induced carcinogenesis [5]: inhibits | inhibition of prostate tumorigenic growth [6]: inhibit prostate tumorigenic growth | in-vitro growth inhibition, TSU-Prl (TSU-Prl): greater than 95% | reversion of activated c-Ha-ras-transformed NIH3T3 cells to the apparently normal phenotype [7]: induces permanent reversion | IC50 [8]: 2200 µM

O=C(NC(Cc1ccccc1)(Cc1ccc(O)cn1)C(=O)O)c1ccccc1 (racemic) [Compound 8c, N-benzoyl-α-benzyl-DL-azatyrosine]
IC50 [4]: 600 µM | IC50 [8]: 600 µM

CCOC(=O)C(Cc1ccc(O)cn1)(CC(C)C)NC(=O)c1ccccc1 (racemic) [Compound 9b, Ethyl N-benzoyl-α-isobutyl-DL-azatyrosinate]
IC50 [4]: 600 µM | IC50 [8]: 700 µM

CC(C)CC(Cc1ccc(O)cn1)(NC(=O)c1ccccc1)C(=O)N[C@@H](C)c1ccccc1 (mixture of isomers) [Compound 10b, N-Benzoyl-α-isobutyl-DL-azatyrosyl-(S)-1-phenylethylamide]
IC50 [4]: 300 µM | cytotoxicity / growth inhibition compared with L-azatyrosine (in words), SC-M1 [4]: higher growth inhibition than that of L-azatyrosine | cytotoxicity / growth inhibition compared with L-azatyrosine (in words), BC-M1 [8]: higher growth inhibition than that of L-azatyrosine | IC50 [8]: 300 µM

CC(C)CC(Cc1ccc(O)cn1)(NC(=O)c1ccccc1)C(=O)O (racemic) [Compound 8b, N-Benzoyl-α-isobutyl-DL-azatyrosine]
IC50 [4]: 1200 µM | IC50 [8]: 1000 µM

C[C@H](NC(=O)C(Cc1ccccc1)(Cc1ccc(O)cn1)NC(=O)c1ccccc1)c1ccccc1 (mixture of isomers) [Compound 10c, N-Benzoyl-α-benzyl-DL-azatyrosyl-(S)-1-phenylethylamide]
IC50 [4]: 80 µM | cytotoxicity / growth inhibition compared with L-azatyrosine (in words), SC-M1 [4]: higher growth inhibition than that of L-azatyrosine; also recorded: excellent cytotoxicity on SC-M1 compared with L-azatyrosine | cytotoxicity / growth inhibition compared with L-azatyrosine (in words), BC-M1 [8]: higher growth inhibition than that of L-azatyrosine | IC50 [8]: 600 µM

CC(Cc1ccc(O)cn1)(NC(=O)c1ccccc1)C(=O)O (racemic) [Compound 8a, N-Benzoyl-α-methyl-DL-azatyrosine]
IC50 [4]: 800 µM | IC50 [8]: 1300 µM

CCOC(=O)C(Cc1ccccc1)(Cc1ccc(O)cn1)NC(=O)c1ccccc1 (racemic) [Compound 9c, Ethyl N-benzoyl-α-benzyl-DL-azatyrosinate]
IC50 [4]: 1000 µM | IC50 [8]: 900 µM
